# Measured values as given in publication PMC9228955, “Synthesis, Physicochemical, Labeling and In Vivo Characterization of ^44Sc-Labeled DO3AM-NI as a Hypoxia-Sensitive PET Probe” (Pharmaceuticals, 2022).
# Tests used:
# KB tumors [1] = experiment: Ex vivo biodistribution in KB tumor xenografts; design: species or system CB17 SCID mice; conditions: for KB tumor uptake: 13 ± 1 days after subcutaneous tumor induction, n = 5, mean ± SD
# Method: For the assessment of the accumulation in the tumors of [^44Sc]Sc(DO3AM-NI) and [^68Ga]Ga(DO3AM-NI), ex vivo biodistribution studies were performed 90 and 240 min post injection using KB tumor xenografts.
# (§1) For tumor induction, SCID mice were injected with 5x10^6 KB tumor cells in 0.9% NaCl (100 µL) subcutaneously into the left shoulder area. The tumor growth was assessed by caliper measurements, and tumor size was calculated using the following formula: (largest diameter × smallest diameter^2)/2. In vivo experiments were carried out approximately 13 ± 1 days after […] injection of tumor cells at the tumor volume of approximately 110 mm^3.
# (§2) For the determination of ex vivo biodistribution of the radiotracers, control and KB tumor-bearing mice were injected intravenously with 8.42 ± 0.38 MBq of ^68Ga- or ^44Sc-labeled DO3AM-NI via the tail vein. Mice were euthanized with 5% isoflurane 90 min or 4 h after intravenous radiotracer injection. Three tissue samples were taken from the selected organs, and their weight and radioactivity were measured with a calibrated gamma counter (Perkin-Elmer Packard Cobra, Waltham, MA, USA). The radiotracer uptake was expressed as %ID/g tissue.
# [2] = Octanol/water partition coefficient (logP) of labeled complexes; format: physicochemical; conditions: 1-octanol/water, triplicates
# Method: (§3) Subsequently, the octanol/water partition coefficient (logP) of the labeled complexes was determined to be −3.89 for [^68Ga]Ga(DO3AM-NI) and −2.59 for [^44Sc]Sc(DO3AM-NI). […] To assess the labeled compounds’ stability, the chelates were mixed with the solution of mouse plasma, Na2H2EDTA and oxalic acid, respectively. Aliquots were then taken at different time points (0, 60, 120 and 240 min) and injected into the radio-HPLC column, and the chromatograms were analyzed. After 240 min, the RCP of the samples was above 93% in all three cases.
# A 10 µL volume of [^68Ga]Ga(DO3AM-NI) and [^44Sc]Sc(DO3AM-NI) solution (~5 MBq) was mixed with 500 µL of 1-octanol and 490 µL of water in an Eppendorf vial, respectively. The mixture was shaken with a vortex shaker (600 rpm) for 10 min and centrifuged (6000 rpm) for 5 min. Then, 100 µL from the octanol phase and 1 μL from the aqueous phase were pipetted into vials, and the aqueous aliquot was diluted to 100 µL with water in order to minimize the effects of sample geometry and the high difference of activity concentrations in the two solvents. The radioactivity of the fractions was determined with a gamma counter. The measurements were performed in triplicates for both labeled compounds.
# [3] = Ex vivo biodistribution in healthy control SCID mice; design: species or system CB17 SCID mice; conditions: mean ± SD
# Method: Ex vivo biodistribution studies were carried out 90 min and 240 min after intravenous injection of ^44Sc- or ^68Ga-labeled DO3AM-NI, and the accumulated activities of the organs and tissues were determined using a gamma counter. By the quantitative analysis of the ex vivo data, significant differences were found between the %ID/g values when ^44Sc- and ^68Ga-labeled DO3AM-NI accumulations were compared. […] In contrast, e.g., [^18F]fluorine- [28], [^131I]iodine- [29], [^99mTc]technetium- [30] and [^64Cu]copper-labeled nitroimidazole-based probes, due to their chemical properties, were mainly metabolized via the liver, and the large abdominal accumulation impaired the evaluation of abdominal tumors in the PET images. The ^44Sc- and ^68Ga-labeled nitroimidazole derivatives had more favorable properties in terms of the reporting and evaluation of PET images and due to their rapid elimination through the urinary system.
# as §2
# KB tumors [4] = experiment: In vivo PET/MRI imaging of KB tumor-bearing mice, quantitative SUV analysis; design: species or system CB17 SCID mice; conditions: 240 min after injection
# Method: The tumor-specific accumulation of [^44Sc]Sc(DO3AM-NI) and [^68Ga]Ga(DO3AM-NI) was investigated by PET/MRI imaging 90 and 240 min after radiotracer injection using KB tumor-bearing mice. The subcutaneously growing KB tumors were clearly visualized using [^44Sc]Sc(DO3AM-NI) 90 and 240 min post injection with relatively higher SUVmean and SUVmax values (SUVmean: 1.46 ± 0.32 and SUVmax: 2.35 ± 0.47 at 90 min and SUVmean: 0.67 ± 0.03 and SUVmax: 1.55 ± 0.28 at 240 min). Lower accumulation was found in the same KB tumors by using the ^68Ga-labeled molecule (SUVmean: 0.79 ± 0.10, SUVmax: 1.94 ± 0.40 at 90 min and SUVmean: 0.51 ± 0.09 and SUVmax: 1.23 ± 0.10 at 240 min); however, this difference between the radiotracers was not significant (Figure 4E). […] In contrast, no significant differences were found between the T/M SUV values of the two radiotracers 90 min post injection (Figure 4F).
# as §1
# For in vivo imaging studies, healthy control and KB tumor-bearing CB17 SCID mice were injected with 8.42 ± 0.38 MBq of ^68Ga- or ^44Sc-labeled DO3AM-NI via the lateral tail vein 13 ± 1 days after the inoculation of KB tumor cells. Then, 65 and 225 min after radiotracer injection, mice were anaesthetized by 3% isoflurane (Forane) with a dedicated small animal anesthesia device and whole-body T1-weighted MRI scans were performed (3D GRE EXT multi-FOV; TR/TE 15/2 ms; phase: 100; FOV 60 mm; NEX 2) using the preclinical nanoScan PET/MRI system with 1 Tesla magnetic field (Mediso Ltd., Hungary). After MRI imaging, 20 min static whole-body PET scans were acquired (90 min and 4 h after radiotracer injection).
# Quantitative radiotracer uptake was expressed in terms of standardized uptake value (SUV), SUV = [VOI activity (Bq/mL)]/[injected activity (Bq)/animal weight (g)], assuming a density of 1 g/mL. Volumes of interest (VOI) were manually drawn around the edge of the organ or tumor activity using the InterView™ FUSION (Mediso Ltd., Hungary) image analysis software. Tumor-to-muscle (T/M) ratios were computed as the ratio between the activity in the tumor VOI and in the background (muscle) VOI. Skeletal muscles of the right shoulder area were used as background.
# [5] = Stability of labeled complexes in mouse plasma, Na2H2EDTA and oxalic acid by radio-HPLC; format: in vitro ADME
# Method: as §3
# A 10 µL volume of [^68Ga]Ga(DO3AM-NI) and [^44Sc]Sc(DO3AM-NI) solution was added to the solution of 90 µL of mouse plasma, Na2H2EDTA (0.01 M) and oxalic acid (0.01 M), respectively. Samples were analyzed by radio-HPLC at the beginning and after 60, 120 and 240 min. The analytical conditions were the same as detailed for the quality control of the labeled compound.
compound,measurement,setting,value
O=C([O-])CN1CCN(CC(=O)[O-])CCN(CC(=O)NCCn2ccnc2[N+](=O)[O-])CCN(CC(=O)[O-])CC1.[44Sc+3] [[^44Sc]Sc(DO3AM-NI)],T/M (tumor-to-muscle ratio),KB tumors [1]; 90 min after injection,79.30 ± 5.26
same,KB tumor uptake,KB tumors [1]; 90 min after injection,0.82 ± 0.11 %ID/g
same,T/M (tumor-to-muscle ratio),KB tumors [1]; 240 min after injection,99.35 ± 5.14
same,KB tumor uptake,KB tumors [1]; 240 min after injection,0.70 ± 0.14 %ID/g
same,T/M ratio relative to the T/M ratio of [^68Ga]Ga(DO3AM-NI),KB tumors [1]; at each time point (90 and 240 min),10–15 fold
same,octanol/water partition coefficient (logP),[2],−2.59
same,Blood uptake,[3]; 90 min after i.v. injection,0.08 ± 0.01 %ID/g
same,Fat uptake,[3]; 90 min after i.v. injection,0.01 ± 0.001 %ID/g
same,Heart uptake,[3]; 90 min after i.v. injection,0.04 ± 0.01 %ID/g
same,Kidney uptake,[3]; 90 min after i.v. injection,1.17 ± 0.41 %ID/g
same,Large intestine uptake,[3]; 90 min after i.v. injection,0.05 ± 0.01 %ID/g
same,Liver uptake,[3]; 90 min after i.v. injection,0.14 ± 0.09 %ID/g
same,Lung uptake,[3]; 90 min after i.v. injection,0.10 ± 0.04 %ID/g
same,Muscle uptake,[3]; 90 min after i.v. injection,0.01 ± 0.01 %ID/g
same,Small intestine uptake,[3]; 90 min after i.v. injection,0.10 ± 0.05 %ID/g
same,Spleen uptake,[3]; 90 min after i.v. injection,0.07 ± 0.02 %ID/g
same,Stomach uptake,[3]; 90 min after i.v. injection,0.09 ± 0.03 %ID/g
same,Urine uptake,[3]; 90 min after i.v. injection,57.78 ± 12.41 %ID/g
same,Blood uptake,[3]; 240 min after i.v. injection,0.03 ± 0.01 %ID/g
same,Fat uptake,[3]; 240 min after i.v. injection,0.01 ± 0.01 %ID/g
same,Heart uptake,[3]; 240 min after i.v. injection,0.03 ± 0.01 %ID/g
same,Kidney uptake,[3]; 240 min after i.v. injection,0.89 ± 0.23 %ID/g
same,Large intestine uptake,[3]; 240 min after i.v. injection,0.04 ± 0.004 %ID/g
same,Liver uptake,[3]; 240 min after i.v. injection,0.20 ± 0.04 %ID/g
same,Lung uptake,[3]; 240 min after i.v. injection,0.04 ± 0.003 %ID/g
same,Muscle uptake,[3]; 240 min after i.v. injection,0.007 ± 0.002 %ID/g
same,Small intestine uptake,[3]; 240 min after i.v. injection,0.03 ± 0.01 %ID/g
same,Spleen uptake,[3]; 240 min after i.v. injection,0.06 ± 0.01 %ID/g
same,Stomach uptake,[3]; 240 min after i.v. injection,0.03 ± 0.005 %ID/g
same,Urine uptake,[3]; 240 min after i.v. injection,6.23 ± 1.25 %ID/g
same,tumor-to-muscle ratio T/M SUVmax,KB tumors [4],129.68 ± 26.11
same,tumor-to-muscle ratio T/M SUVmean,KB tumors [4],182.67 ± 23.50
same,RCP after 240 min,[5]; Na2H2EDTA (0.01 M),above 93%
same,RCP after 240 min,[5]; mouse plasma,above 93%
same,RCP after 240 min,[5]; oxalic acid (0.01 M),above 93%
